Consider four compounds from patent publication US20220056014A1, “PHENYLPYRROLIDINE COMPOUND AND USE THEREOF” (WUHAN HUMANWELL INNOVATIVE DRUG RESEARCH AND DEVELOPMENT …, priority 2018, published 2022).

Series [1] is described as follows: Mouse pharmacokinetic test. The class given is in vivo, CD-1 mice. Conditions: male, CD-1, plasma, oral gavage 10 mg/kg. The procedure: (§1) In the rat pharmacokinetic test, 3 male SD rats (180-240 g) were fasted overnight, and orally administered with 10 mg/kg of compound to be tested. Blood was collected before the administration, and 15 min, 30 min, 1 h, 2 h, 4 h, 8 h, and 24 h hours after the administration. The blood sample was centrifuged at 8000 rpm for 6 min at 4° C., and the plasma was collected and stored at −20° C. The plasma collected at each time point was added and mixed with 3-5 times the amount of acetonitrile solution containing an internal standard, vortexed for 1 min, centrifuged at 13,000 rpm for 10 min at 4° C. The supernatant was taken and mixed with 3 times the amount of water, and an appropriate amount of the mixture was taken for LC-MS/MS analysis. The main pharmacokinetic parameters were analyzed with WinNonlin 7.0 software non-compartmental model.
In the mouse pharmacokinetic test, 9 male CD-1 mice (20-25 g) were fasted overnight, and orally administered with 10 mg/kg of the compound to be tested. Bloods of 3 mice were collected at each time point, and bloods of 9 mice were alternately collected in total. In the pharmacokinetic test in canine, 3 male beagle dogs (8-10 kg) were fasted overnight, and orally administered with 5 mg/kg of the compound to be test. In the pharmacokinetic test of cynomolgus monkeys, 3 male cynomolgus monkeys (4 to 6.5 kg) were fasted overnight, and orally administered 20 mg/kg of the compound to be test. The remaining processes are the same as those of the rat pharmacokinetic test.

For series [2], the system named is Mouse CIA arthritis model. As to the kind of experiment: Mouse CIA arthritis model test. The class given is in vivo, DBA/1 mice. Conditions: 30 mg/kg oral, twice a day for 21 days; for inhibition rate based on clinical score AUC: AUC day 21 to day 42; for Clinical score (endpoint): day 42, highest score 16. The procedure: (1) Preparation of Type II Collagen/Complete Freund's Adjuvant
Preparation of acetic acid: 2N acetic acid was diluted to 100 mM, filtered with 0.22 μm filter membrane, and stored at 4° C.
Preparation of bovine type II collagen solution: bovine type II collagen (CII) was dissolved in 100 mM acetic acid solution and stored at 4° C. overnight. A final concentration of collagen was 8 mg/mL.
Preparation of emulsion: the CII solution stored overnight was mixed with an equal volume of complete Freund's adjuvant, and homogenized on ice by a high-speed homogenizer at 30,000 rpm for approximately 60 min, until the solution formed a stable emulsion.
After DBA/1 mice were anesthetized with isoflurane, 50 μl of prepared collagen emulsion (containing 200 micrograms of CII) was injected subcutaneously in the tail (2-3 cm from the base of the tail) for immunization. The day of the primary immunization was recorded as day 0, and the following days were recorded sequentially. On day 21, the same volume of collagen emulsion was injected into the tail in the same way. Mice in the normal group were not immunized.
On day 21, the mice that had been induced to have arthritis were randomly grouped according to their body weights, such that the average body weight of each group was consistent, and they were randomly divided into 6 treatment groups for administration, with 10 mice in each group.
G1 group included normal mice without being treated; G2 group was given a blank vehicle; G3 to G7 groups were administrated with the compound at a dose of 30 mg/kg, twice a day for 21 days. The volume of oral administration was 10 mL/kg.
After the enhanced immunization, the disease incidence of the mice was observed every day. When the mice began to develop symptoms (clinical symptoms of arthritis emerged), the symptoms were graded as 0 to 4 according to the different degrees of pathological changes (redness, joint deformation), where the highest score for each limb was 4, and the highest score for each animal was 16. The mice were graded at least three times a week.
The area under curve (AUC) of clinical scores of each group from day 21 to day 42 was calculated, and the inhibition rate % of the clinical score AUC of the administration group was calculated:
Inhibition rate %=1−(administration group AUC/blank vehicle group AUC)*100%
The experimental data are expressed as Mean±standard error (Mean±SEM), and the clinical scores were analyzed with One-way ANOVA, where p<0.05 was considered to be a significant difference.

A further series is described as follows: Rat pharmacokinetic test. The class given is in vivo, SD rats. Conditions: male, Sprague-Dawley (SD), plasma, oral gavage 10 mg/kg. The procedure: as §1
The target in a further series is T1, PDE4D (Homo sapiens, UniProt Q08499).
T1 construct: purchased Enzo Life Sciences BML-SE523-0020
As to the kind of experiment: PDE4D enzyme activity assay (PDE-Glo Phosphodiesterase Assay Kit). The class given is biochemical. In outline: (§2)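 Recombinant human PDE4B (1 ng/μl working solution) or PDE4D (4 ng/μl working solution) preincubated 5 min at RT with compound, then reacted 20 min with cAMP (2 μM in added solution). PDE-Glo termination/detection and Kinase-Glo steps followed; luminescence read and IC50 fitted.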

Another series concerns the target T2, PDE4B (Homo sapiens, UniProt Q07343).
T2 construct: purchased Enzo Life Sciences BML-SE522-0020
As to the kind of experiment: PDE4B enzyme activity assay (PDE-Glo Phosphodiesterase Assay Kit). The series is classed as biochemical. Conditions: for IC50 (PDE4D)/IC50 (PDE4B): selectivity ratio. In outline:
as §2

Structures are written as SMILES.

T1 sequence (Q08499 whole entry): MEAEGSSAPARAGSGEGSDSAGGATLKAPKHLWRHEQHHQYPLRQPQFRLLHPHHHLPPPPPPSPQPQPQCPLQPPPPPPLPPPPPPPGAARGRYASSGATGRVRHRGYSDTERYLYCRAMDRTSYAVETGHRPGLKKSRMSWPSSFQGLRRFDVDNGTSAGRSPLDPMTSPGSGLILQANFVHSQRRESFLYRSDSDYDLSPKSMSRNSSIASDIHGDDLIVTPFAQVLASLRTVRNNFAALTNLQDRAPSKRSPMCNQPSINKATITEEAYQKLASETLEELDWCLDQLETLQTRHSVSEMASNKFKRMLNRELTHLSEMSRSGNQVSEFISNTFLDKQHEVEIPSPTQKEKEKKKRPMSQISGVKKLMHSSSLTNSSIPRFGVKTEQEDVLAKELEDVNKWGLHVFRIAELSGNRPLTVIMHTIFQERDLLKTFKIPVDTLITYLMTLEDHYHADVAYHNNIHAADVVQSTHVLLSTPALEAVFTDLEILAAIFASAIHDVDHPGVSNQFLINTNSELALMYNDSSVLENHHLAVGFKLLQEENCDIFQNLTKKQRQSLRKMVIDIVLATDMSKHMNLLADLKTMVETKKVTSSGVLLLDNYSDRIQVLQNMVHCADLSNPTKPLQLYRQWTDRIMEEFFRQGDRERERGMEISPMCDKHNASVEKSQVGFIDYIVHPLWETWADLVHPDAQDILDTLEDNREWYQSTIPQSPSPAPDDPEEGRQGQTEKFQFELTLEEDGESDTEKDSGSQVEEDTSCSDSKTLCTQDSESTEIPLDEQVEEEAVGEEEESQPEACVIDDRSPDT
T2 sequence (Q07343 whole entry): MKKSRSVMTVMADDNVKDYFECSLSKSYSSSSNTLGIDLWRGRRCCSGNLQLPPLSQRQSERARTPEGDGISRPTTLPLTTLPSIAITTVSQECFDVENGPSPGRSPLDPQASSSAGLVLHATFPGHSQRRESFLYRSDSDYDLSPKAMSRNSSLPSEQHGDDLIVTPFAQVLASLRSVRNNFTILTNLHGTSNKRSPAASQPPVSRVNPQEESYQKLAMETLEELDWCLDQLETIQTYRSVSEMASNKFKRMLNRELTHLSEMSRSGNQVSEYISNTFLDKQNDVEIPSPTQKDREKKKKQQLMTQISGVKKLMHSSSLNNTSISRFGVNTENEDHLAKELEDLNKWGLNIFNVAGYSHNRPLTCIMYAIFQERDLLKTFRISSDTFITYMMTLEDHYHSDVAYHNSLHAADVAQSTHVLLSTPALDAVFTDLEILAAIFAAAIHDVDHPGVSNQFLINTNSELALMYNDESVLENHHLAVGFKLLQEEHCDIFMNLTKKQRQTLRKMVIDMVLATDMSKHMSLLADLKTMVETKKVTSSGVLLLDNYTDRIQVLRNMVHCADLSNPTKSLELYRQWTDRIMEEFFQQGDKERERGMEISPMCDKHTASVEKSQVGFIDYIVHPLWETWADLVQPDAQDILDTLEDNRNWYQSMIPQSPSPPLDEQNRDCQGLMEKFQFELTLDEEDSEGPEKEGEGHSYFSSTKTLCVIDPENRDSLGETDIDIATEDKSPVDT

For the compound `COc1ccc([C@@H]2CN(C(=O)[C@@H](O)CO)C[C@@]2(C)[C@@H](C)O)cc1OC1CN(c2ncc(C)cc2F)C1` [Compound 004, (S)-1-((3S,4S)-4-(3-((1-(3-fluoro-5-methylpyridin-2-yl)azetidin-3-yl)oxy)-4-methoxyphenyl)-3-((R)-1-hydroxyethyl)-3-methylpyrrolidin-1-yl)-2,3-dihydroxypropan-1-one], in series [1], the area under the curve AUC(0-t) – broadly, the area under the concentration-time curve up to a stated or last time point – stood at 896 ng·h/mL; the Cmax (as a rule, the peak of the concentration-time curve) came out at 378 ng/mL; the Tmax (commonly the time at which the peak concentration occurs) was 30 min. Besides, in series [2], the “inhibition rate based on clinical score AUC” value (“inhibition rate based” below) was determined as 67.5% and the “Clinical score (endpoint)” value amounted to 3.3. In the series “Rat pharmacokinetic test”, the exposure AUC(0-t) is 2480 ng·h/mL, the peak level (Cmax) was 823 ng/mL and the Tmax was determined as 25.2 min. Besides, at PDE4D, the IC50 (usually the concentration at which inhibition is half-maximal) came out at 1.12 nM. Also, at PDE4B, the midpoint of inhibition, the IC50, lay at 0.93 nM and the “IC50 (PDE4D)/IC50 (PDE4B)” value came to 1.20.

For `COc1ccc([C@@H]2CN(C(=O)[C@@H](O)CO)C[C@@]2(C)[C@@H](C)O)cc1OC1CN(c2ccc(C)c(C)n2)C1` [Compound 007, (S)-1-((3S,4S)-4-(3-((1-(5,6-dimethylpyridin-2-yl)azetidin-3-yl)oxy)-4-methoxyphenyl)-3-((R)-1-hydroxyethyl)-3-methylpyrrolidin-1-yl)-2,3-dihydroxypropan-1-one], in series [1], the AUC(0-t) is 332 ng·h/mL, the peak level (Cmax) was 125 ng/mL and the time to peak (Tmax) was 30 min. In series [2], the “inhibition rate based” value stood at 77.2% and the “Clinical score (endpoint)” value is reported as 3.1. In “Rat pharmacokinetic test”, the AUC(0-t) is 1530 ng·h/mL, the Cmax was 735 ng/mL and the time of peak concentration (Tmax) is 30 min. The IC50 against PDE4D came to 3.94 nM. For the same compound, on PDE4B, inhibition was half-maximal at 1.17 nM (IC50) and the “IC50 (PDE4D)/IC50 (PDE4B)” value is listed as 3.37.

Take `COc1ccc([C@@H]2CN(C(=O)[C@@H](O)CO)C[C@@]2(C)[C@@H](C)O)cc1OC1CN(c2ccc(Cl)c(C)n2)C1` [Compound 011, (S)-1-((3S,4S)-4-(3-((1-(5-chloro-6-methylpyridin-2-yl)azetidin-3-yl)oxy)-4-methoxyphenyl)-3-((R)-1-hydroxyethyl)-3-methylpyrrolidin-1-yl)-2,3-dihydroxypropan-1-one]: in series [1], the area under the curve AUC(0-t) was found to be 1050 ng·h/mL, the peak level (Cmax) was 316 ng/mL and the time to peak (Tmax) is 30 min. In series [2], the “inhibition rate based” value was determined as 49.3% and the “Clinical score (endpoint)” value turned out to be 4.8. Further, in the series “Rat pharmacokinetic test”, the AUC(0-t) was found to be 294 ng·h/mL, the Cmax came out at 126 ng/mL and the Tmax came to 25.2 min. Moreover, the IC50 at PDE4D worked out at 1.07 nM. Also, on PDE4B, the half-maximal inhibitory concentration (IC50) is 2.31 nM and the “IC50 (PDE4D)/IC50 (PDE4B)” value was found to be 0.46.

Regarding `COc1ccc([C@@H]2CN(C(=O)[C@@H](O)CO)C[C@@]2(C)[C@@H](C)O)cc1OC1CN(c2ccc(C)cn2)C1` [Positive control compound, reference compound], in series [1], the AUC(0-t) stood at 237 ng·h/mL, the Cmax amounted to 142 ng/mL and the time to peak (Tmax) amounted to 15 min. In series [2], the “inhibition rate based” value worked out at 42.3% and the “Clinical score (endpoint)” value is recorded as 4.4. In “Rat pharmacokinetic test”, the exposure AUC(0-t) amounted to 190 ng·h/mL, the maximum concentration (Cmax) stood at 68.2 ng/mL and the time to peak (Tmax) came out at 30 min. The same compound registered an IC50 on PDE4D of 0.41 nM. Further, at PDE4B, 2.1 nM corresponded to half-maximal inhibition (IC50) and the “IC50 (PDE4D)/IC50 (PDE4B)” value is 0.20.
